{"source": "patent US6355799B1", "about": "“Substituted benzene compounds, process for their preparation, and herbicidal and defoliant compositions containing them” (ISK Americas Incorporated, priority 1997, dated 2002)", "assay_type_in_all_cases": "in vivo", "key": {"[1]": {"system": "upland rice (Oryza sp., var. Tebonnet, RICE)", "assay": "Pre-emerge test, crop safety", "conditions": "pre-emerge, rated 14 days after application, 0 = no damage, 100 = complete death", "summary_of_the_method": "(§1)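 Compounds in acetone were track-sprayed at 15-1000 g ai/ha (187 l/ha) on sandy loam pots: pre-emerge one day after seeding, post-emerge at 2-3 leaf stage with 0.25% v/v non-ionic surfactant. Phytotoxicity was rated 14 days later on a 0 (no damage) to 100 (complete death) scale.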"}, "[2]": {"system": "field corn (Zea mays L., var. Dekalb 535, CORN)", "assay": "Pre-emerge test, crop safety", "conditions": "pre-emerge, rated 14 days after application, 0 = no damage, 100 = complete death", "summary_of_the_method": "as §1"}, "[3]": {"system": "upland rice (Oryza sp., var. Tebonnet, RICE)", "assay": "Post-emerge test, crop safety", "conditions": "phytotoxicity rating 0-100 (0 no damage, 100 complete death), 14 days after application", "summary_of_the_method": "(§2)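 Visual ratings on a 0-100 scale (0 no damage, 100 all plants dead) were taken at 14 days after treatment. Rates of 15-1000 g ai/ha in acetone, 187 l/ha, were sprayed onto soil one day after planting (pre-emerge) or onto 2-3 leaf plants with 0.25% v/v surfactant (post-emerge).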"}, "[4]": {"system": "field corn (Zea mays L., var. Dekalb 535, CORN)", "assay": "Post-emerge test, crop safety", "conditions": "phytotoxicity rating 0-100 (0 no damage, 100 complete death), 14 days after application", "summary_of_the_method": "as §2"}, "[5]": {"system": "velvetleaf (Abutilon theophrasti, ABUTH)", "assay": "Pre-emerge test, greenhouse herbicide activity screening", "conditions": "pre-emerge, rated 14 days after application, 0 = no damage, 100 = complete death", "summary_of_the_method": "as §2"}, "[6]": {"system": "barnyardgrass (Echinochloa crus-galli, ECHCG)", "assay": "Pre-emerge test, greenhouse herbicide activity screening", "conditions": "pre-emerge, rated 14 days after application, 0 = no damage, 100 = complete death", "summary_of_the_method": "as §2"}, "[7]": {"system": "green foxtail (Setaria viridis, SETVI)", "assay": "Pre-emerge test, greenhouse herbicide activity screening", "conditions": "pre-emerge, rated 14 days after application, 0 = no damage, 100 = complete death", "summary_of_the_method": "as §2"}, "[8]": {"system": "johnsongrass (Sorghum halepense, SORHA)", "assay": "Pre-emerge test, greenhouse herbicide activity screening", "conditions": "pre-emerge, rated 14 days after application, 0 = no damage, 100 = complete death", "summary_of_the_method": "as §2"}, "[9]": {"system": "large crabgrass (Digitaria sanguinalis, DIGSA)", "assay": "Pre-emerge test, greenhouse herbicide activity screening", "conditions": "pre-emerge, rated 14 days after application, 0 = no damage, 100 = complete death", "summary_of_the_method": "as §2"}, "[10]": {"system": "sicklepod (Cassia obtusifolia, CASOB)", "assay": "Pre-emerge test, greenhouse herbicide activity screening", "conditions": "pre-emerge, rated 14 days after application, 0 = no damage, 100 = complete death", "summary_of_the_method": "as §2"}, "[11]": {"system": "lambsquarters (Chenopodium album, CHEAL)", "assay": "Pre-emerge test, greenhouse herbicide activity screening", "conditions": "pre-emerge, rated 14 days after application, 0 = no damage, 100 = complete death", "summary_of_the_method": "as §2"}, "[12]": {"system": "ivyleaf morningglory (Ipomoea hederacea, IPOHE)", "assay": "Pre-emerge test, greenhouse herbicide activity screening", "conditions": "pre-emerge, rated 14 days after application, 0 = no damage, 100 = complete death", "summary_of_the_method": "as §2"}, "[13]": {"system": "common ragweed (Ambrosia artemisizfolia L., AMBEL)", "assay": "Pre-emerge test, greenhouse herbicide activity screening", "conditions": "pre-emerge, rated 14 days after application, 0 = no damage, 100 = complete death", "summary_of_the_method": "as §2"}, "[14]": {"system": "redroot pigweed (Amaranthus retroflexus, AMARE)", "assay": "Pre-emerge test, greenhouse herbicide activity screening", "conditions": "pre-emerge, rated 14 days after application, 0 = no damage, 100 = complete death", "summary_of_the_method": "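Plants grown in 10 cm pots of sandy loam mix received acetone-dissolved compounds through a moving flat-fan nozzle. Doses ranged from 15 to 1000 g ai/ha. Pre-emerge pots were seeded one day earlier, post-emerge pots 8–21 days earlier. Fourteen days on, each pot was graded 0–100 for damage.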"}, "[15]": {"system": "velvetleaf (Abutilon theophrasti, ABUTH)", "assay": "Post-emerge test, greenhouse herbicide activity screening", "conditions": "phytotoxicity rating 0-100 (0 no damage, 100 complete death), 14 days after application", "summary_of_the_method": "as §2"}, "[16]": {"system": "barnyardgrass (Echinochloa crus-galli, ECHCG)", "assay": "Post-emerge test, greenhouse herbicide activity screening", "conditions": "phytotoxicity rating 0-100 (0 no damage, 100 complete death), 14 days after application", "summary_of_the_method": "as §2"}, "[17]": {"system": "green foxtail (Setaria viridis, SETVI)", "assay": "Post-emerge test, greenhouse herbicide activity screening", "conditions": "phytotoxicity rating 0-100 (0 no damage, 100 complete death), 14 days after application", "summary_of_the_method": "as §2"}, "[18]": {"system": "johnsongrass (Sorghum halepense, SORHA)", "assay": "Post-emerge test, greenhouse herbicide activity screening", "conditions": "phytotoxicity rating 0-100 (0 no damage, 100 complete death), 14 days after application", "summary_of_the_method": "as §2"}, "[19]": {"system": "large crabgrass (Digitaria sanguinalis, DIGSA)", "assay": "Post-emerge test, greenhouse herbicide activity screening", "conditions": "phytotoxicity rating 0-100 (0 no damage, 100 complete death), 14 days after application", "summary_of_the_method": "as §2"}, "[20]": {"system": "redroot pigweed (Amaranthus retroflexus, AMARE)", "assay": "Post-emerge test, greenhouse herbicide activity screening", "conditions": "phytotoxicity rating 0-100 (0 no damage, 100 complete death), 14 days after application", "summary_of_the_method": "as §2"}, "[21]": {"system": "sicklepod (Cassia obtusifolia, CASOB)", "assay": "Post-emerge test, greenhouse herbicide activity screening", "conditions": "phytotoxicity rating 0-100 (0 no damage, 100 complete death), 14 days after application", "summary_of_the_method": "as §2"}, "[22]": {"system": "lambsquarters (Chenopodium album, CHEAL)", "assay": "Post-emerge test, greenhouse herbicide activity screening", "conditions": "phytotoxicity rating 0-100 (0 no damage, 100 complete death), 14 days after application", "summary_of_the_method": "as §2"}, "[23]": {"system": "ivyleaf morningglory (Ipomoea hederacea, IPOHE)", "assay": "Post-emerge test, greenhouse herbicide activity screening", "conditions": "phytotoxicity rating 0-100 (0 no damage, 100 complete death), 14 days after application", "summary_of_the_method": "as §2"}, "[24]": {"system": "common ragweed (Ambrosia artemisizfolia L., AMBEL)", "assay": "Post-emerge test, greenhouse herbicide activity screening", "conditions": "phytotoxicity rating 0-100 (0 no damage, 100 complete death), 14 days after application", "summary_of_the_method": "as §2"}}}
{"smiles": "COc1c(Cl)cc(F)c(-n2c(=O)cc(C(F)(F)F)n(C)c2=O)c1NC(C)=O", "note": "[2-1]", "values": [{"measurement": "Pre-emerge crop damage RICE (phytotoxicity rating, scale 0-100)", "setting": "[1]; 63 g ai/ha", "value": 80}, {"measurement": "Pre-emerge crop damage RICE (phytotoxicity rating, scale 0-100)", "setting": "[1]; 250 g ai/ha", "value": 90}, {"measurement": "Pre-emerge crop damage CORN (phytotoxicity rating, scale 0-100)", "setting": "[2]; 63 g ai/ha", "value": 30}, {"measurement": "Pre-emerge crop damage CORN (phytotoxicity rating, scale 0-100)", "setting": "[2]; 250 g ai/ha", "value": 80}, {"measurement": "Post-emerge Herbicidal Activity RICE (crop damage)", "setting": "[3]; 63 g ai/ha", "value": 30}, {"measurement": "Post-emerge Herbicidal Activity RICE (crop damage)", "setting": "[3]; 250 g ai/ha", "value": 70}, {"measurement": "Post-emerge Herbicidal Activity CORN (crop damage)", "setting": "[4]; 63 g ai/ha", "value": 10}, {"measurement": "Post-emerge Herbicidal Activity CORN (crop damage)", "setting": "[4]; 250 g ai/ha", "value": 15}, {"measurement": "Pre-emerge Herbicidal Activity ABUTH (phytotoxicity rating, scale 0-100)", "setting": "[5]; 63 g ai/ha", "value": 100}, {"measurement": "Pre-emerge Herbicidal Activity ABUTH (phytotoxicity rating, scale 0-100)", "setting": "[5]; 250 g ai/ha", "value": 100}, {"measurement": "Pre-emerge Herbicidal Activity ECHCG (phytotoxicity rating, scale 0-100)", "setting": "[6]; 63 g ai/ha", "value": 10}, {"measurement": "Pre-emerge Herbicidal Activity ECHCG (phytotoxicity rating, scale 0-100)", "setting": "[6]; 250 g ai/ha", "value": 70}, {"measurement": "Pre-emerge Herbicidal Activity SETVI (phytotoxicity rating, scale 0-100)", "setting": "[7]; 63 g ai/ha", "value": 80}, {"measurement": "Pre-emerge Herbicidal Activity SETVI (phytotoxicity rating, scale 0-100)", "setting": "[7]; 250 g ai/ha", "value": 95}, {"measurement": "Pre-emerge Herbicidal Activity SORHA (phytotoxicity rating, scale 0-100)", "setting": "[8]; 63 g ai/ha", "value": 30}, {"measurement": "Pre-emerge Herbicidal Activity SORHA (phytotoxicity rating, scale 0-100)", "setting": "[8]; 250 g ai/ha", "value": 70}, {"measurement": "Pre-emerge Herbicidal Activity DIGSA (phytotoxicity rating, scale 0-100)", "setting": "[9]; 63 g ai/ha", "value": 20}, {"measurement": "Pre-emerge Herbicidal Activity DIGSA (phytotoxicity rating, scale 0-100)", "setting": "[9]; 250 g ai/ha", "value": 100}, {"measurement": "Pre-emerge Herbicidal Activity CASOB (phytotoxicity rating, scale 0-100)", "setting": "[10]; 63 g ai/ha", "value": 80}, {"measurement": "Pre-emerge Herbicidal Activity CASOB (phytotoxicity rating, scale 0-100)", "setting": "[10]; 250 g ai/ha", "value": 100}, {"measurement": "Pre-emerge Herbicidal Activity CHEAL (phytotoxicity rating, scale 0-100)", "setting": "[11]; 63 g ai/ha", "value": 90}, {"measurement": "Pre-emerge Herbicidal Activity CHEAL (phytotoxicity rating, scale 0-100)", "setting": "[11]; 250 g ai/ha", "value": 100}, {"measurement": "Pre-emerge Herbicidal Activity IPOHE (phytotoxicity rating, scale 0-100)", "setting": "[12]; 63 g ai/ha", "value": 95}, {"measurement": "Pre-emerge Herbicidal Activity IPOHE (phytotoxicity rating, scale 0-100)", "setting": "[12]; 250 g ai/ha", "value": 100}, {"measurement": "Pre-emerge Herbicidal Activity AMBEL (phytotoxicity rating, scale 0-100)", "setting": "[13]; 63 g ai/ha", "value": 50}, {"measurement": "Pre-emerge Herbicidal Activity AMBEL (phytotoxicity rating, scale 0-100)", "setting": "[13]; 250 g ai/ha", "value": 100}, {"measurement": "Pre-emerge Herbicidal Activity AMARE (phytotoxicity rating, scale 0-100)", "setting": "[14]; 63 g ai/ha", "value": 60}, {"measurement": "Pre-emerge Herbicidal Activity AMARE (phytotoxicity rating, scale 0-100)", "setting": "[14]; 250 g ai/ha", "value": 100}, {"measurement": "Post-emerge Herbicidal Activity ABUTH", "setting": "[15]; 63 g ai/ha", "value": 100}, {"measurement": "Post-emerge Herbicidal Activity ABUTH", "setting": "[15]; 250 g ai/ha", "value": 100}, {"measurement": "Post-emerge Herbicidal Activity ECHCG", "setting": "[16]; 63 g ai/ha", "value": 0}, {"measurement": "Post-emerge Herbicidal Activity ECHCG", "setting": "[16]; 250 g ai/ha", "value": 10}, {"measurement": "Post-emerge Herbicidal Activity SETVI", "setting": "[17]; 63 g ai/ha", "value": 0}, {"measurement": "Post-emerge Herbicidal Activity SETVI", "setting": "[17]; 250 g ai/ha", "value": 30}, {"measurement": "Post-emerge Herbicidal Activity SORHA", "setting": "[18]; 63 g ai/ha", "value": 0}, {"measurement": "Post-emerge Herbicidal Activity SORHA", "setting": "[18]; 250 g ai/ha", "value": 0}, {"measurement": "Post-emerge Herbicidal Activity DIGSA", "setting": "[19]; 63 g ai/ha", "value": 0}, {"measurement": "Post-emerge Herbicidal Activity DIGSA", "setting": "[19]; 250 g ai/ha", "value": 0}, {"measurement": "Post-emerge Herbicidal Activity AMARE", "setting": "[20]; 63 g ai/ha", "value": 50}, {"measurement": "Post-emerge Herbicidal Activity AMARE", "setting": "[20]; 250 g ai/ha", "value": 100}, {"measurement": "Post-emerge Herbicidal Activity CASOB", "setting": "[21]; 63 g ai/ha", "value": 50}, {"measurement": "Post-emerge Herbicidal Activity CASOB", "setting": "[21]; 250 g ai/ha", "value": 100}, {"measurement": "Post-emerge Herbicidal Activity CHEAL", "setting": "[22]; 63 g ai/ha", "value": 95}, {"measurement": "Post-emerge Herbicidal Activity CHEAL", "setting": "[22]; 250 g ai/ha", "value": 100}, {"measurement": "Post-emerge Herbicidal Activity IPOHE", "setting": "[23]; 63 g ai/ha", "value": 100}, {"measurement": "Post-emerge Herbicidal Activity IPOHE", "setting": "[23]; 250 g ai/ha", "value": 100}, {"measurement": "Post-emerge Herbicidal Activity AMBEL", "setting": "[24]; 63 g ai/ha", "value": 30}, {"measurement": "Post-emerge Herbicidal Activity AMBEL", "setting": "[24]; 250 g ai/ha", "value": 85}]}
